This note sets out measurements from publication PMC13492380, “Dissecting Structural and Functional Determinants of Microtubules Stabilization through Guided Chemical Modulation” (Journal of Medicinal Chemistry, 2026).

For experiment [1], the system named is kinesin-1 light chain KLC1 (anterograde transport) in SH-SY5Y cells. The experiment is described as follows: Cy5-KBP kinesin binding probe tracking, live-cell imaging. It is filed as cell-based, human. The following applies: for Cy5-KBP Distance, normalized to control / Cy5-KBP Speed, normalized to control: 1 μM PTX or 2.5 μM FTX2, 1a or 1b, mean ± SEM. From the text: Building on our ability to chemically modulate MT structure, we next explored how these changes influence signaling patterns involved in MAPs interactions. Given that MTs are key players in intracellular transport – guiding organelles, vesicles and chromosomes via molecular motors like dyneins and kinesins – we assessed the impact of our compounds on transport dynamics in neuroblastoma SH-SY5Y cells. We combined live-cell imaging with previously developed tracking peptides (Figure A): Cy5-DBP, which encompasses the sequence that specifically recognizes Dynein Light Chain LC8 (retrograde transport), and Cy5-KBP, with a sequence that binds to the tetratricopeptide repeat of the kinesin-1 light chain KLC1 (anterograde transport). […] However, this was for a short incubation period (1 to 2.5 h, including imaging time) to avoid mitotic arrest or compromise cell viability. We then assessed particle behavior by measuring mean track displacement and mean track velocity.
Cy5-KBP and Cy5-DBP tracking peptides were synthesized at CIB-Margarita Salas (CSIC), following a published protocol. Briefly, the peptide chains were assembled via solid phase peptide synthesis (SPPS) using fluorenylmethyloxycarbonyl (Fmoc) as N-terminal protecting group and, subsequently labeled with the organic dye cyanine 5 (Cy5) via a maleimide–thiol reaction between the N-terminal cysteine residues of the peptides and the commercially available Cy5-maleimide. The final peptides were purified via reverse phase HPLC, dissolved in DMSO to a final 2.5 mM concentration and stored in small aliquots at −20 °C. SH-SY5Y cells were seeded into μ-Slide 8-wells ibiTreat plates (ibidi, flat polymer coverslip-bottom, tissue culture treated) at a concentration of 35,000 cells/well and incubated for 48 h at 37 °C and 5% CO2. […] After this time, the culture medium was replaced by the drug working solution containing either Cy5-KBP or Cy5-DBP, and the plate was incubated for an additional 15 min at 37 °C and 5% CO2. Then, the culture medium was replaced with drug working solution without labeled peptide and the cells were imaged using a confocal laser scanning microscope Leica TCS SP8 with a 63x oil immersion objective that included a humidified incubation chamber, a CO2 controller and a heating unit. Cy5 dye was excited at 635 nm and the fluorescence emission was collected at 645–690 nm. Images were recorded every 1.793 s for 3 min as 2-layer-z-stacks. For each condition, two to three different fields were imaged in two separate experiments.
Single-peptide trajectories were tracked with the TrackMate plugin from the Fiji package software (https://imagej.net/TrackMate). Particles with an estimated blob diameter of 1–1.5 μm were detected using the Laplacian of Gaussian (LoG) detector and linked with the Linear motion LAP tracker. Only spots that were at a maximum distance of 2 μm were linked. Trajectories with less than 6 spots were discarded since they were probably artifactual, and track mean displacement and track mean velocity were calculated and normalized to control cells. Data were further analyzed with MATLAB to perform a Mean Square Displacement (MSD) analysis to determine the mode of displacement of the peptides followed over time. Briefly, for each trajectory the MSD function was calculated and its log–log representation fitted with a linear function (log(MSD(τ)) = […] x log(τ) + C). MSD curves with an R^2 coefficient <0.8 were removed. The slope (α) of each MSD curve determines the motion type of each particle and particles were classified into: constrained particles (CM) α < 1, Brownian particles (BM) α = 1, and transported particles (TM) α > 1. Two independent experiments were performed using three biological replicates (N = 6). Statistical analyses of normalized track mean displacement and track mean velocity were performed using an unpaired t test with Welch’s correction in GraphPad Prism 8 software. […]

Experiment [2] relates to Kb-3.1 cells (HeLa subclone). Kind of experiment: MTT cytotoxicity assay, Kb-3.1. As to conditions: Homo sapiens, read-out: Cytotoxicity IC50 Kb-3.1. It is filed as cell-based. The procedure: Antiproliferative assays were performed as described.

Where two headings read alike, the source gives them in different places.

A word on the IC50: it is the point on the concentration scale where inhibition reaches its midpoint. As for `CC(=O)OC1C(=O)C2(C)C(OC(=O)CCCCC(=O)OC3CCc4ccccc43)CC3OCC3(OC(C)=O)C2C(OC(=O)c2ccccc2)C2(O)CC(OC(=O)C(O)C(NC(=O)c3ccccc3)c3ccccc3)C(C)=C1C2(C)C` (stereo not drawn) [1a, 7-O-(6″-O-(2‴,3‴-Dihydroinden-1‴-yl)hexanedioyl) Paclitaxel], in experiment [1], the “Cy5-KBP Distance, normalized to control” value is listed as 0.92 ± 0.01 ratio to control and the “Cy5-KBP Speed, normalized to control” value is recorded as 0.95 ± 0.01 ratio to control. For the same compound, in experiment [1] (2.5 μM), the “effect on Cy5-KBP particle tracking” value is recorded as “did not affect particle tracking”. Also, the IC50 in experiment [2] (KB 3-1, 48 h) came to 0.28 ± 0.03 µM.

In the case of `COc1ccc2c(c1)CC(NC(=O)CCCCCCCC(=O)OC1CC3OCC3(OC(C)=O)C3C(OC(=O)c4ccccc4)C4(O)CC(OC(=O)C(O)C(NC(=O)c5ccccc5)c5ccccc5)C(C)=C(C(OC(C)=O)C(=O)C13C)C4(C)C)CC2` [1b, 7-O-((S)-9″-(7‴-Methoxy-1‴,2‴,3‴,4‴-tetrahydronaphthalen-2‴-yl)amino) −9″-oxononanoyl) Paclitaxel], in experiment [1], the “Cy5-KBP Distance, normalized to control” value was 0.85 ± 0.01 ratio to control and the “Cy5-KBP Speed, normalized to control” value is on record as 0.87 ± 0.01 ratio to control. For the same compound, in experiment [1] (2.5 μM), the “reduction in kinesin binding probe velocity” value is given as ~16%. In addition, the half-inhibitory concentration (IC50) in experiment [2] (KB 3-1, MTT, 48 h, mean ± SEM) is 0.15 ± 0.02 µM.

With `CC(=O)O[C@H]1C(=O)[C@]2(C)[C@@H](OC(=O)[C@H](C)NC(=O)c3ccc(-c4c5cc(F)c(=O)cc-5oc5cc(O)c(F)cc45)c(C(=O)O)c3)C[C@H]3OC[C@@]3(OC(C)=O)[C@H]2[C@H](OC(=O)c2ccccc2)[C@]2(O)C[C@H](OC(=O)[C@H](O)[C@@H](NC(=O)c3ccccc3)c3ccccc3)C(C)=C1C2(C)C` [FTX2, Flutax2], in experiment [1], the “Cy5-KBP Distance, normalized to control” value is 0.910 ± 0.003 ratio to control and the “Cy5-KBP Speed, normalized to control” value is listed as 0.85 ± 0.01 ratio to control. For the same compound, the “reduction in kinesin binding probe velocity” value in experiment [1] (2.5 μM) is given as ~14%.

As for `CC(=O)O[C@H]1C(=O)[C@@]2(C)[C@H]([C@H](OC(=O)c3ccccc3)[C@]3(O)C[C@H](OC(=O)[C@H](O)[C@@H](NC(=O)c4ccccc4)c4ccccc4)C(C)=C1C3(C)C)[C@]1(OC(C)=O)CO[C@@H]1C[C@@H]2O` [PTX, Paclitaxel], the IC50 in experiment [2] (KB 3-1, MTT, 48 h, mean ± SEM) came to 0.0024 ± 0.0002 µM.
